Experimental data published in patent publication US6469057B1, “Methods for in vivo reduction of free radical levels and compositions useful therefor” (MCW Research Foundation, Inc., priority 1995, dated 2002).
“Also recorded” adds a separate entry of the source.

Columns and labels:
NO [1] = test: Ex vivo EPR measurement of [(MGD)2/Fe-NO] levels in the urine of LPS-treated mice; details: for [(MGD)2/Fe-NO] present in LPS-treated mouse urine: urine 2 h later
Method: After 2 h, the mouse was sacrificed and the urine sample was collected from the urinary bladder, and immediately transferred to a quartz flat cell for X-band EPR measurement as described above in Example 2B. Inhibition experiments with NMMA or dexamethasone were performed as described above in Example 2A, except that the mice were treated with LPS prior to following the protocols for NO inhibition experiments. The procedures for S-band EPR measurement of wet tissues and blood samples were as described previously (Lai and Komarov, supra).
Thus, at 6 h after LPS treatment, mice were injected with the [(MGD)2/Fe] complex, with and without i.p. injection of NMMA (50 mg/kg). The mice were sacrificed at 2 h after injection of the [(MGD)2/Fe] complex. The urine samples were collected and the EPR measurement was carried out at 22° C.

NO [2] = test: Ex vivo EPR measurement of [(MGD)2/Fe-NO] levels in the urine of normal mice
Method: Normal mice housed in a restraining tube were injected subcutaneously with 0.4 ml of the [(MGD)2/Fe] complex (326 mg/Kg of MGD and 34 mg/Kg of FeSO4). After 2 hours, the animals were sacrificed and the urine samples were collected from the urinary bladder. The urine sample, which was dark brown (characteristic of the presence of [(MGD)2/Fe] complex), was transferred to a quartz flat cell for EPR measurement. The spectra were recorded at 22° C. with an X-band EPR spectrometer, operating at 9.5 GHz. Instrument settings include 100-G field scan, 4-min scan time, 0.5-s time constant, 2.5-G modulation amplitude, 100-KHz modulation frequency and 100-mW microwave power. The concentrations of the [(MGD)2/Fe—NO] complex in the urine samples were calculated by comparing the signal intensities obtained from the samples to the signal intensity of a standard solution containing 0.1 mM of the [(MGD)2/Fe—NO] complex.
For inhibition experiments, mice were injected intraperitoneally with 50 mg/kg NMMA in saline immediately after the injection of the [(MGD)2/Fe] complex. In other experiments, mice were injected intravenously with 3 mg/kg dexamethasone in saline about 1.5 h before the injection of the [(MGD)2/Fe] complex. […] Acetylcholine chloride (Sigma) in saline was freshly prepared prior to subcutaneous injection at a dose of 67 mg/kg.
At 2 h after subcutaneous injection of an aliquot (0.4 ml) of the [(MGD)2/Fe] complex (326 mg/Kg of MGD and 34 mg/Kg of FeSO4) into normal mice (A) (and also in the presence of NMMA (50 mg/kg) (B), or of dexamethasone (3 mg/kg) (C)), the animals were sacrificed and the urine samples collected and transferred to a quartz flat cell for X-band (9.5 GHz) EPR measurement at 22° C.

| Structure (SMILES) | effect on signal intensity of [(MGD)2/Fe-NO] in the urine of LPS-treated mice (NO [1]; NMMA 50 mg/kg i.p. at 6 h after LPS) | [(MGD)2/Fe-NO] present in LPS-treated mouse urine (NO [1]; NMMA 50 mg/kg i.p. at 6 h after LPS just prior to [(MGD)2/Fe]) | [(MGD)2/Fe-NO] present in LPS-treated mouse urine (NO [1]; NMMA 100 mg/kg i.p. at 6 h after LPS just prior to [(MGD)2/Fe]) | effect on the [(MGD)2/Fe-NO] EPR signal in urine (NO [2]; normal mice, NMMA 50 mg/kg i.p., dexamethasone 3 mg/kg i.v. pretreatment) | [(MGD)2/Fe-NO] present in mouse urine (NO [2]; mouse, in vivo) | increase in urinary [(MGD)2/Fe-NO] levels (NO [2]; normal mice, acetylcholine 67 mg/kg s.c.) [fold] |
| --- | --- | --- | --- | --- | --- | --- |
| CNC(=N)NCCC[C@H](N)C(=O)O [NMMA, N^G-monomethyl-L-arginine] | markedly reduces the signal intensity; also recorded: markedly reducing the signal intensity | 3.6 ± 0.9 (4) | 7.3 ± 2.2 (3) | markedly reduced | – | – |
| CC(=O)OCC[N+](C)(C)C.[Cl-] [Acetylcholine, acetylcholine chloride] | – | – | – | – | 3.9 ± 0.8 (3) μM | 3 |
